Assay results published in article PMC5432571 (Frontiers in Molecular Neuroscience, 2017).

How the values were obtained:
α2 GlyRs = settings: read-out: mean value of EC50 for glycine; ref Maleeva et al., 2015; cited from earlier work
homomeric α1 GlyR = target: T1, homomeric α1 GlyR (Homo sapiens, UniProt P23415); assay: Whole-cell patch-clamp of glycine-induced currents, α1 GlyR expressed in CHO cells; format: cell-based; settings: PTX 20 μM; glycine 30 μM; Vhold −30 mV
T1 construct: expressed in transfected cells; host or cells: CHO cells
T1 sequence (P23415 29-449 isoform P23415-2 limits assumed): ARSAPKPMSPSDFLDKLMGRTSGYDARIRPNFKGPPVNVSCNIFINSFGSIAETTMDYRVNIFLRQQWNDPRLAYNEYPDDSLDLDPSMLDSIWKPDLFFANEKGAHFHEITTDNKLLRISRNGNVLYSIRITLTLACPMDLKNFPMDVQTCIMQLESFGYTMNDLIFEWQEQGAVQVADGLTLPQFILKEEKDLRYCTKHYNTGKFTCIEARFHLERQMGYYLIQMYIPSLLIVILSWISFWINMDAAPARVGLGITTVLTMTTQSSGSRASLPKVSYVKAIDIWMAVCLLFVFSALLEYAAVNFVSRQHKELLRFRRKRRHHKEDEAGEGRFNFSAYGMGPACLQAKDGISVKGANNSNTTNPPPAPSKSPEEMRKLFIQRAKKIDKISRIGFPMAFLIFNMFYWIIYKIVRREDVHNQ
Procedure: (§1) The experiments were carried out on cultured Chinese hamster ovary (CHO) cells obtained from the American Type Tissue Culture Collection (ATCC, Molsheim, France) that were maintained in culture conditions as previously described (Mukhtarov et al., [2013]; Maleeva et al., [2015]).
(§2) One day before transfection, cells were plated on the cover slips (12 mm in diameter) and placed inside 35-mm cell culture dishes with 2 ml of medium. Transfection was performed using the Lipofectamine 3000 protocol (Life Technology, USA). To facilitate identification of transfected cells a green fluorescent protein (GFP) was added to the transfection mixture. For expression of functional heteromeric receptors, cells were simultaneously transfected with cDNAs of α and β subunits in the ratio 1:10. Three hours after the initial exposure of cells to the cDNAs the culture medium was replaced with that containing strychnine (1 μM), which prevents spontaneous activation of GlyRs. Electrophysiological recordings were performed in the fluorescent cells 24–72 h after transfection.
(§3) Whole-cell and outside-out recordings were performed at room temperature (20–25°C) using an EPC-9 amplifier (HEKA Elektronik, Germany). Cells were continuously superfused with external solution containing (mM): NaCl 140, CaCl2 2, KCl 2.8, MgCl2 4, HEPES 20, glucose 10; pH 7.4; 320–330 mOsm. Intracellular solution used for filling recording patch pipettes contained (mM): CsCl 140, CaCl2 6, MgCl2 2, MgATP 2, NaGTP 0.4, HEPES/CsOH 10, BAPTA (tetrapotassium salt) 2; pH 7.3; 290 mOsm. Two different protocols of solutions application were used in this study. […] A “ramp protocol” implies the gradual change of Vhold alternately from −80 to +80 mV and from +80 to −80 mV during 1 s, Vhold was fixed at −80 or +80 mV at the beginning and at the end of the ramp for 500 ms (Figure 2B).
(§4) Recording pipettes were pulled from borosilicate glass capillaries (Harvard Apparatus Ltd, USA) and had resistances of 5–10 MOhm. For the rapid replacement of the solutions, the fast application system was used. Three parallel rectangular tubes (100 × 100 μm) were positioned 40–50 μm above the recorded cell. The movement of the tubes was controlled by a computer-driven fast exchange system (SF 77A Perfusion Fast-Step, Warner, USA) allowing a 10–90% solution exchange in 3–5 ms, as measured by open electrode controls (1/10 external solution/water). Cells with low input resistance (<150 MOhm) and a rapid run-down (>30% with repetitive application) were excluded from analysis.
(§5) Electrophysiological recordings were performed using PatchMaster (HEKA Electronic, Germany) software.
(§6) The fractional electrical distance from the external side of the membrane (δ) at which bound NFA blocked the current was calculated using the Woodhull equation: IC50(V)=IC50(0) exp (−δFV/RT), where IC50(V) is IC50 at the given membrane potential, IC50(0) – at 0 mV, V – membrane potential and F, R, T have their usual meanings. δ was determined from a plot of IC50 values against membrane potential.

α2 GlyR = target: T2, α2 GlyR (Homo sapiens, UniProt P23416); assay: Whole-cell patch-clamp of glycine-induced currents, α2 GlyR expressed in CHO cells; format: cell-based; settings: PTX 20 μM; glycine 30 μM; Vhold −30 mV
T2 construct: expressed in transfected cells; host or cells: CHO cells
T2 sequence (P23416 28-452 isoform P23416-2 limits assumed): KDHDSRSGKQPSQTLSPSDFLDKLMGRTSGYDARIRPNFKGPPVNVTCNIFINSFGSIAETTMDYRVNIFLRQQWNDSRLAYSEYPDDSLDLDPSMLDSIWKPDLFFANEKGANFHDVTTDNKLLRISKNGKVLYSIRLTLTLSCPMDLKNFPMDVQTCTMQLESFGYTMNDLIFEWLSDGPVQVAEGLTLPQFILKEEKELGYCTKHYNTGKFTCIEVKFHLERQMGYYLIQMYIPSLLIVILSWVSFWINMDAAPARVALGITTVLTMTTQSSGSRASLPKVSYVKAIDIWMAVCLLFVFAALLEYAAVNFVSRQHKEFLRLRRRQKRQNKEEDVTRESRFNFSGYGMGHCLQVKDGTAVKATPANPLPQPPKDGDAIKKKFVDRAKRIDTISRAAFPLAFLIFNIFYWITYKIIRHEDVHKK
Procedure: as §1, §2, §3, §4, §5, §6

α1β GlyR = target: T3, α1β GlyR (Homo sapiens, UniProt P23415+P48167); assay: Whole-cell patch-clamp of glycine-induced currents, heteromeric α1β GlyR expressed in CHO cells; format: cell-based; settings: PTX 20 μM; glycine 30 μM; Vhold −30 mV
T3 construct: expressed in transfected cells; host or cells: CHO cells
T3 sequence (P48167 23-497, one chain of several): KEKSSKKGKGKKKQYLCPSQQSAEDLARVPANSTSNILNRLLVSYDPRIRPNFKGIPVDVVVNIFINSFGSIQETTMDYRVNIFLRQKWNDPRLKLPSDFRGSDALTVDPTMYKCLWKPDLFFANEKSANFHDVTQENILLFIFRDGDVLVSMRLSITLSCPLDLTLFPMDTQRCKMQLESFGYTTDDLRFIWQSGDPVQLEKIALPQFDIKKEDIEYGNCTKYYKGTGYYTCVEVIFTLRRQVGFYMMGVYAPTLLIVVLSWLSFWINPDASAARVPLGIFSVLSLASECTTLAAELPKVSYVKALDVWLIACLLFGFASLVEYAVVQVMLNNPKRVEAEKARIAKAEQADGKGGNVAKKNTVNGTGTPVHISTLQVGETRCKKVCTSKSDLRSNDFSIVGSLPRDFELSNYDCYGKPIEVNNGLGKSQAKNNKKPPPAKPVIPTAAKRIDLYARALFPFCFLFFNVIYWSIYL
Procedure: as §1, §2, §3, §4, §5

α2β GlyR = target: T4, α2β GlyR (Homo sapiens, UniProt P23416+P48167); assay: Whole-cell patch-clamp of glycine-induced currents, heteromeric α2β GlyR expressed in CHO cells; format: cell-based; settings: PTX 20 μM; glycine 30 μM; Vhold −30 mV
T4 construct: expressed in transfected cells; host or cells: CHO cells
T4 sequence (P48167 23-497, one chain of several): as above
Procedure: as §1, §2, §3, §4, §5

Molecule	EC50 (α2 GlyRs)	amplitude of current, % of the control (homomeric α1 GlyR)	amplitude of current, % of the control (α2 GlyR)	current, % from the control (α1β GlyR)	current, % from the control (α2β GlyR)
NCC(=O)O [glycine]	42 ± 2 µM	–	–	–	–
picrotoxin [PTX]	–	27 ± 3%	3 ± 1%	75 ± 2%	41 ± 4%
